ChEMBL document CHEMBL1201862, “PubChem BioAssay data set” (2004)
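Five compound concentrations were applied to cells in 96-well plates for 48 hours; endpoints were derived by simple linear interpolation of the resulting dose-response curve. At the GI50, growth is halved.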 The source made the active and inactive calls. No stated cut-off is given here; in the data, active = GI50 up to about 1.1 µM and inactive = higher.

Columns and labels:
Experiment in all cases: NCI tumour cell line growth inhibition, 48 h
SK-MEL-5 = system: SK-MEL-5
Malme-3M = system: Malme-3M
BT-549 = system: BT-549
UACC-257 = system: UACC-257
SR = system: SR
RPMI-8226 = system: RPMI-8226
SF-268 = system: SF-268
HCT-15 = system: HCT-15
OVCAR-8 = system: OVCAR-8
HL-60 = system: HL-60
A498 = system: A498
MOLT-4 = system: MOLT-4
NCI/ADR-RES = system: NCI/ADR-RES
MDA-MB-435 = system: MDA-MB-435
SK-MEL-2 = system: SK-MEL-2
NCI-H226 = system: NCI-H226
CCRF-CEM = system: CCRF-CEM
MDA-MB-231 = system: MDA-MB-231
SNB-19 = system: SNB-19
NCI-H23 = system: NCI-H23

| Structure (SMILES) | GI50 (SK-MEL-5) | GI50 (Malme-3M) | GI50 (BT-549) | GI50 (UACC-257) | GI50 (SR) | GI50 (RPMI-8226) | GI50 (SF-268) | GI50 (HCT-15) [µM] | GI50 (OVCAR-8) | GI50 (HL-60) | GI50 (A498) | GI50 (MOLT-4) | GI50 (NCI/ADR-RES) | GI50 (MDA-MB-435) | GI50 (SK-MEL-2) | GI50 (NCI-H226) | GI50 (CCRF-CEM) | GI50 (MDA-MB-231) | GI50 (SNB-19) | GI50 (NCI-H23) |
| --- | --- | --- | --- | --- | --- | --- | --- | --- | --- | --- | --- | --- | --- | --- | --- | --- | --- | --- | --- | --- |
| O=C1OC(C2Cc3ccc4ccccc4c3C2=O)c2ccccc21 (stereo not drawn) | 22 µM (inactive) | 50.1 µM (inactive) | 37 µM (inactive) | 70.8 µM (inactive) | 35.2 µM (inactive) | 25.9 µM (inactive) | 33.8 µM (inactive) | 34.8 | 35.6 µM (inactive) | 50 µM (inactive) | > 100 µM (inactive) | 31.4 µM (inactive) | 49.2 µM (inactive) | 51.9 µM (inactive) | 47.8 µM (inactive) | 19.5 µM (inactive) | 31 µM (inactive) | > 100 µM (inactive) | 23.2 µM (inactive) |  |
| CCOC(NC(=O)CC)(C(F)(F)F)C(F)(F)F | > 100 µM (inactive) | > 100 µM (inactive) | > 100 µM (inactive) | > 100 µM (inactive) | > 100 µM (inactive) | > 100 µM (inactive) | > 100 µM (inactive) | > 100 | > 100 µM (inactive) | > 100 µM (inactive) | > 100 µM (inactive) | > 100 µM (inactive) | > 100 µM (inactive) | > 100 µM (inactive) | > 100 µM (inactive) | > 100 µM (inactive) | > 100 µM (inactive) | > 100 µM (inactive) | > 100 µM (inactive) | > 100 µM (inactive) |
| CCOC(=O)c1ccc2c(=O)n3c(C(=O)OCC)ccc3c(=O)n12 | > 100 µM (inactive) | > 100 µM (inactive) | > 100 µM (inactive) | > 100 µM (inactive) | > 100 µM (inactive) | > 100 µM (inactive) | > 100 µM (inactive) | > 100 | > 100 µM (inactive) | > 100 µM (inactive) | > 100 µM (inactive) | > 100 µM (inactive) | > 100 µM (inactive) | > 100 µM (inactive) | > 100 µM (inactive) | > 100 µM (inactive) | > 100 µM (inactive) | > 100 µM (inactive) | > 100 µM (inactive) | > 100 µM (inactive) |
| CC1=C/C(=N\NC(N)=S)C(C(O)(C(F)(F)F)C(F)(F)F)C(C)(C)C1 (stereo not drawn) | > 10 µM (inactive) | > 10 µM (inactive) | > 10 µM (inactive) | > 10 µM (inactive) | > 10 µM (inactive) | > 10 µM (inactive) | > 10 µM (inactive) | > 10 | > 10 µM (inactive) | > 10 µM (inactive) | > 10 µM (inactive) | > 10 µM (inactive) | > 10 µM (inactive) | > 10 µM (inactive) | > 10 µM (inactive) | > 10 µM (inactive) | > 10 µM (inactive) | > 10 µM (inactive) | > 10 µM (inactive) | > 10 µM (inactive) |
| O=c1c2c(nc3[nH]ccn13)CCC2 | > 10 µM (inactive) | > 10 µM (inactive) | > 10 µM (inactive) | > 10 µM (inactive) | > 10 µM (inactive) | > 10 µM (inactive) | > 10 µM (inactive) | > 10 | > 10 µM (inactive) | > 10 µM (inactive) | 2.13 µM (inactive) | > 10 µM (inactive) | > 10 µM (inactive) | > 10 µM (inactive) | > 10 µM (inactive) | > 10 µM (inactive) | > 10 µM (inactive) | > 10 µM (inactive) | > 10 µM (inactive) | > 10 µM (inactive) |
| CCOP(=O)(C/C=C/Cn1ncc(=O)[nH]c1=O)OCC | > 100 µM (inactive) | > 100 µM (inactive) | > 100 µM (inactive) | > 100 µM (inactive) | > 10 µM (inactive) | > 100 µM (inactive) | > 100 µM (inactive) | > 100 | > 100 µM (inactive) | > 100 µM (inactive) | > 100 µM (inactive) | > 100 µM (inactive) | > 100 µM (inactive) | > 100 µM (inactive) | > 100 µM (inactive) | > 100 µM (inactive) | > 100 µM (inactive) | > 100 µM (inactive) | > 100 µM (inactive) |  |
| C=CCN(c1cc(OC)c2[nH]c(C(=O)O)c(C)c2c1[N+](=O)[O-])S(C)(=O)=O | > 100 µM (inactive) | 9.79 µM (inactive) | > 100 µM (inactive) | > 100 µM (inactive) | > 100 µM (inactive) | > 100 µM (inactive) | > 100 µM (inactive) | > 100 | > 100 µM (inactive) | > 100 µM (inactive) | > 100 µM (inactive) | > 100 µM (inactive) | > 100 µM (inactive) | > 100 µM (inactive) | > 100 µM (inactive) | > 100 µM (inactive) | > 100 µM (inactive) | > 100 µM (inactive) | > 100 µM (inactive) | > 100 µM (inactive) |
| CC(O)C1(CNc2cc(Cl)nc(N)n2)CCCCC1 (stereo not drawn) | 45.6 µM (inactive) | > 100 µM (inactive) | 70.1 µM (inactive) | 84.9 µM (inactive) | 66.1 µM (inactive) | 48.9 µM (inactive) | > 100 µM (inactive) | > 100 | > 100 µM (inactive) | 89.7 µM (inactive) | 39.3 µM (inactive) | 35.6 µM (inactive) | 58.2 µM (inactive) | > 100 µM (inactive) | > 100 µM (inactive) | > 100 µM (inactive) | 97.5 µM (inactive) | > 100 µM (inactive) | > 100 µM (inactive) | 83.6 µM (inactive) |
| CCOC(=O)c1c(N/C(S)=N/c2ccccc2)sc2c1CCOC2 | 53.1 µM (inactive) | 52.1 µM (inactive) | 2.08 µM (inactive) | 64 µM (inactive) | 53.5 µM (inactive) | 55.5 µM (inactive) | 64.1 µM (inactive) | 46.7 | > 100 µM (inactive) | 24 µM (inactive) | 37 µM (inactive) | 69.5 µM (inactive) | 60.4 µM (inactive) | 56.6 µM (inactive) | 74.6 µM (inactive) | > 100 µM (inactive) | 63.7 µM (inactive) | > 100 µM (inactive) | > 100 µM (inactive) | 26.4 µM (inactive) |
| O=C(NC(OCc1ccccc1)(C(F)(F)F)C(F)(F)F)OCc1ccccc1 | 15.8 µM (inactive) | 18 µM (inactive) | 15.4 µM (inactive) | 14.2 µM (inactive) | 12 µM (inactive) | 16.4 µM (inactive) | 18.2 µM (inactive) | 13.8 | 16.3 µM (inactive) | 17.1 µM (inactive) | 17.7 µM (inactive) | 18.1 µM (inactive) | 12.6 µM (inactive) | 17.3 µM (inactive) | 15.3 µM (inactive) | 14.1 µM (inactive) | 16.1 µM (inactive) | 17.7 µM (inactive) | 15.8 µM (inactive) | 12.9 µM (inactive) |
| CN(CCC#N)c1ccc(/C=C2\SC(=S)NC2=O)cc1 | 52 µM (inactive) | > 100 µM (inactive) | 21.7 µM (inactive) | > 100 µM (inactive) | 24.3 µM (inactive) | 34 µM (inactive) | 63.1 µM (inactive) | 48.2 | > 100 µM (inactive) | 24.3 µM (inactive) | 30.1 µM (inactive) | 42 µM (inactive) | > 100 µM (inactive) | 31.6 µM (inactive) | 35 µM (inactive) | > 100 µM (inactive) | 6.75 µM (inactive) | 56 µM (inactive) | 71 µM (inactive) | 39.5 µM (inactive) |
| N#CC(/N=N/c1ccccc1)c1nc2ccccc2o1 (stereo not drawn) | 86.9 µM (inactive) | 55.8 µM (inactive) | 20.7 µM (inactive) | > 100 µM (inactive) | 36.8 µM (inactive) | 23.6 µM (inactive) | 22.2 µM (inactive) | > 100 | 24.5 µM (inactive) | > 100 µM (inactive) | 76.9 µM (inactive) | 49.4 µM (inactive) | 23.8 µM (inactive) | > 100 µM (inactive) | 25.4 µM (inactive) | 35.7 µM (inactive) | 34.6 µM (inactive) | 20.8 µM (inactive) | 30.7 µM (inactive) | 18.6 µM (inactive) |
| C(/C=N/c1ccccc1)=C(/Nc1ccccc1)c1ccc2ccccc2c1 | 2.63 µM (inactive) | 1.78 µM (inactive) | 1.08 µM (active) | 4.55 µM (inactive) | 0.676 µM (active) | 1.79 µM (inactive) | 4.71 µM (inactive) | 1.06 | 3.61 µM (inactive) | 1.5 µM (inactive) | 12.4 µM (inactive) | 1 µM (active) | 1.5 µM (inactive) | 0.299 µM (active) | 5.55 µM (inactive) | 1.77 µM (inactive) | 1.1 µM (active) | 1.29 µM (inactive) | 2.29 µM (inactive) | 2.13 µM (inactive) |
| C=C1C[C@@H]2CC[C@@]34CC5O[C@H]6C(O[C@H]7CC[C@H](CC(=O)O[C@@H]8[C@@H](C)[C@@H]9O[C@@H]%10C[C@]%11(C[C@@H]%12O[C@]%13(C[C@H](C)[C@@H]%14O[C@@H]%15CC(C(O)CO)O[C@@H]%15C[C@@H]%14O%13)C[C@H](C)[C@@H]%12O%11)O[C@@H]%10C[C@@H]9O[C@H]8CC8O[C@@H](CC[C@@H]1O2)C[C@@H](C)C8(O)CO)O[C@@H]7[C@@H]6O3)[C@H]5O4 (stereo partly drawn) | 0.624 µM (active) | 0.394 µM (active) | 0.00891 µM (active) | > 1 µM (active) | > 0.625 µM (active) | > 0.849 µM (active) | > 1 µM (active) | > 0.638 | > 1 µM (active) | > 1 µM (active) | > 1 µM (active) | > 1 µM (active) | > 1 µM (active) | 0.294 µM (active) | > 0.859 µM (active) | 0.986 µM (active) | > 1 µM (active) | > 1 µM (active) | > 1 µM (active) | > 0.473 µM (active) |
